The source made the active and inactive calls.
Tests used:
[1] = biological target: Transitional endoplasmic reticulum ATPase (Homo sapiens, UniProt P55072, C522A); experiment: Luminescence counterscreen assay for p97 inhibitors: dose response biochemical high throughput screening assay to identify inhibitors of the C522A mutant p97 ATPase: synthesized compounds. [Related pubchem assays: 1481, 1517, 1551 ]
[2] = biological target: Transitional endoplasmic reticulum ATPase (Homo sapiens, UniProt P55072); experiment: Luminescence dose response biochemical high throughput screening assay for inhibitors of the p97 ATPase: synthesized compounds. [Related pubchem assays: 1481, 1517 ]
[3] = Fluorescence Cell-Based Dose Response to Identify Inhibitors of Thrombin Receptor-Activating Peptide SFLLRN-Mediated P-Selectin Induction on Platelets. [Related pubchem assays: 1663 (Primary HTS), 1889 (retest at dose ), 1891 (counterscreen), 1678 (Project Summary)]; type: functional
Paired box protein Pax-8 = Paired box protein Pax-8 (Homo sapiens, UniProt Q06710); experiment: PAX8 transcriptional activity inhibition in RMG-I – RMG-I cells, luciferase, cherry-pick, dose response (AID 687027); type: functional, cell-based;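 note: luciferase reporter driven by Pax8 target thyroperoxidase promoter measured by SteadyGlo luminescence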
[4] = biological target: T1, Replicative DNA helicase DnaB (Mycobacterium tuberculosis, UniProt P9WMR3); experiment: DnaB intein splicing inhibitors, dose response, biochemical, cell-free fluorescence (AID 449749); type: functional
T1 sequence (P9WMR3 whole entry): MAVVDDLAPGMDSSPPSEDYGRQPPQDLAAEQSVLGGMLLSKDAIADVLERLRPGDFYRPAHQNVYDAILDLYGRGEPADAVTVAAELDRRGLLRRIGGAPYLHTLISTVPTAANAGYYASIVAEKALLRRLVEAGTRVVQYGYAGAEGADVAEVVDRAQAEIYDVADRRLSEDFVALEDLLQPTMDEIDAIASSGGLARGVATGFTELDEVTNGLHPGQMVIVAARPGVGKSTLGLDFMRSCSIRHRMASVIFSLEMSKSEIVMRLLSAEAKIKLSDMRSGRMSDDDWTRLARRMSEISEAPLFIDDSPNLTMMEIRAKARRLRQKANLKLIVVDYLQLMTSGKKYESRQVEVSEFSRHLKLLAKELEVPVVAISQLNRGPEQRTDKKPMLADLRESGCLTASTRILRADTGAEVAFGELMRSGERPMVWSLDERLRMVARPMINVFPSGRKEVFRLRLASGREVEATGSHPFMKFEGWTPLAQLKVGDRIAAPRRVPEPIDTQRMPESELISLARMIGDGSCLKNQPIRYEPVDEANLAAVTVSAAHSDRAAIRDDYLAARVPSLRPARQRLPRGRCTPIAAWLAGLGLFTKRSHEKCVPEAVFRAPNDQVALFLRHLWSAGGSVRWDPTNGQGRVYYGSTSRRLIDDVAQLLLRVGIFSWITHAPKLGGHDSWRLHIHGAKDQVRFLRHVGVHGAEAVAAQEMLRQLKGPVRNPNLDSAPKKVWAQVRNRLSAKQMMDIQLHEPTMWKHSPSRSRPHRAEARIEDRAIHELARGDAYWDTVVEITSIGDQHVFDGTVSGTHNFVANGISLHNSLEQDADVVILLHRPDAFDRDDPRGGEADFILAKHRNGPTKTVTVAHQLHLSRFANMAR

A-375 [5] = experiment: proliferation inhibition in MITF-low A375 cells – cell-based, cherry-pick samples, set 2, counter-screen for MITF modulator project, dose response (AID 540335); type: functional; conditions: Homo sapiens
A-375 [6] = experiment: MITF: Counter assay: A375 proliferation Measured in Cell-Based System Using Plate Reader - 2084-03_Inhibitor_Dose_DryPowder_Activity. [Related pubchem assays (depositor defined):AID488944]; type: functional; conditions: Homo sapiens
[7] = Luminescence Cell-Based Dose Confirmation HTS to Identify Inhibitors of Platelet Dense Granule Release. [Related pubchem assays: 1663 (Primary HTS), 1678 (Summary of Project)]; type: functional
Protein RecA = biological target: T2, Protein RecA (Mycobacterium tuberculosis, UniProt P9WHJ3); experiment: Fluorescence Cell-Free Homogeneous Dose Retest to Identify Inhibitors of RecA-Intein Splicing Activity. [Related pubchem assays (depositor defined):AID2097, AID2223, AID489010, AID492950]; type: functional
T2 sequence (P9WHJ3 whole entry): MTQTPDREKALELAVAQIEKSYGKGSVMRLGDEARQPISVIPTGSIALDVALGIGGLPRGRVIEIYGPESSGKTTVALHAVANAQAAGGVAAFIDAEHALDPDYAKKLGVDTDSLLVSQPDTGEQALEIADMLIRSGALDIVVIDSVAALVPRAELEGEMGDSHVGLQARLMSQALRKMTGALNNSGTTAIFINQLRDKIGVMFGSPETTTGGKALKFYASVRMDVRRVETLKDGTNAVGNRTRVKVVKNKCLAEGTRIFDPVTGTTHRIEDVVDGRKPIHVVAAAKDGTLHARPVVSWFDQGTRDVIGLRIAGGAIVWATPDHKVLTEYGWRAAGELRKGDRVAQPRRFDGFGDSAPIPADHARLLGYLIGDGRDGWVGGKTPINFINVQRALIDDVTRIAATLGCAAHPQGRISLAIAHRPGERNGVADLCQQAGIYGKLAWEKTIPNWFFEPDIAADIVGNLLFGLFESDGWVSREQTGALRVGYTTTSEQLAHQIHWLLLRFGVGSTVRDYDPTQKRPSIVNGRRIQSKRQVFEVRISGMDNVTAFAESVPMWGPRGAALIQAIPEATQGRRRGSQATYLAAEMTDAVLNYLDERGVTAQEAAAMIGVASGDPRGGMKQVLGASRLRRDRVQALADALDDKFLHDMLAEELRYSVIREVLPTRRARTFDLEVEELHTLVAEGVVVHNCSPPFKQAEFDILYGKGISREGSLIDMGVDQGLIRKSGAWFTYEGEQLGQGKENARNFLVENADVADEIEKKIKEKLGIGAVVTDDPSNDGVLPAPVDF

[8] = biological target: Sphingosine 1-phosphate receptor 1 (Homo sapiens, UniProt P21453); type: functional;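 note: Tango beta-arrestin reporter U2OS cells stimulated with S1P near its EC80; inhibitor potency meaning antagonism of receptor activation by the natural agonist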
Beta Lactamase = Beta Lactamase (Pseudomonas aeruginosa, UniProt Q932Y6); experiment: BLA reporter interference, concentration series – BLA reporter cells, FRET fluorescence, artefact control for TLR9-MyD88 binding inhibitor project, dose response (AID 588341); type: cell-based;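 note: cell based assay in CHO-K1 cells stably expressing beta-lactamase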
[9] = biological target: Luciferin 4-monooxygenase (Photinus pyralis, UniProt P08659); experiment: inhibition of purified Photinus pyralis luciferase – biochemical, luminescence, dose response (AID 1891)
[10] = biological target: T3, Sphingosine 1-phosphate receptor 4 (Homo sapiens, UniProt O95977); experiment: Fluorescence dose response cell-based high throughput screening assay for antagonists of the Sphingosine 1-Phosphate Receptor 4 (S1P4). [Related pubchem assays: 1524 (Confirmation in triplicates.), 1510 (Primary screen.)]; type: functional
T3 sequence (O95977 whole entry): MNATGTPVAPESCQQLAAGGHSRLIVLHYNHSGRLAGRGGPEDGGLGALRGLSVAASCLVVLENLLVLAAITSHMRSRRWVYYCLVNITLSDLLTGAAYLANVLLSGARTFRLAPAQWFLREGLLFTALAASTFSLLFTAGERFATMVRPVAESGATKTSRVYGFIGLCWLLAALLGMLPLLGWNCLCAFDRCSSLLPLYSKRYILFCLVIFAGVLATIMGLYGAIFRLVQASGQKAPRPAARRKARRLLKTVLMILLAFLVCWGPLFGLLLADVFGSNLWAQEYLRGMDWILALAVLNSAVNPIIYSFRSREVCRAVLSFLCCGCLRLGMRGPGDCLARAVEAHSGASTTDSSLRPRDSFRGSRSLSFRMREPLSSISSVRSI

CHO = CHO cell viability loss, potency – luminescence, cytotoxicity control for TLR9-MyD88 binding inhibitor project, dose response (AID 588339); type: functional, cell-based, hamster; conditions: Cricetulus griseus;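 note: CHO cells stably coexpressing TLR9 and MyD88 fusions from primary screen; compound exposure lasted 48 hours before viability readout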
[11] = viability loss of HPDE-C7K cells – cell-based, fluorescence, HTS, primary screen (AID 431); type: functional; conditions: Homo sapiens
[12] = HPDE-C7 pancreatic duct cell viability loss – fluorescence, HTS (AID 430); type: functional, cell-based; conditions: Homo sapiens
Cytochrome P450 2C19 = Cytochrome P450 2C19 (Homo sapiens, UniProt P33261); experiment: qHTS Assay for Inhibitors and Substrates of Cytochrome P450 2C19. [Related pubchem assays: 410 ]; type: ADME; conditions: read-out: Potency
Cytochrome P450 2C19, sequence (P33261 whole entry): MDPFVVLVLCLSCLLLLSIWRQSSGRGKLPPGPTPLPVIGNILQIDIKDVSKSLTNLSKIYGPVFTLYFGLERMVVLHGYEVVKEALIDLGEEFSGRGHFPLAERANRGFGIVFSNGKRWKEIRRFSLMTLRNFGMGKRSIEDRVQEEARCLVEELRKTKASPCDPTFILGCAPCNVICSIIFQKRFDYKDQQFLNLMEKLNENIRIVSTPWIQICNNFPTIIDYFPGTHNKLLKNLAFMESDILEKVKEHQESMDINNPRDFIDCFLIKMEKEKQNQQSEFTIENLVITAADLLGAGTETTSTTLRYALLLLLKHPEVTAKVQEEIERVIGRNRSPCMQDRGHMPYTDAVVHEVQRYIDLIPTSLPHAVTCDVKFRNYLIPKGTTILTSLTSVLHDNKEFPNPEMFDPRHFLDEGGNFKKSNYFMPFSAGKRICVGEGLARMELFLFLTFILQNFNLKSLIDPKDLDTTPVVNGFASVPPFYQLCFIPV

Paired box protein Pax-8, sequence (Q06710 whole entry): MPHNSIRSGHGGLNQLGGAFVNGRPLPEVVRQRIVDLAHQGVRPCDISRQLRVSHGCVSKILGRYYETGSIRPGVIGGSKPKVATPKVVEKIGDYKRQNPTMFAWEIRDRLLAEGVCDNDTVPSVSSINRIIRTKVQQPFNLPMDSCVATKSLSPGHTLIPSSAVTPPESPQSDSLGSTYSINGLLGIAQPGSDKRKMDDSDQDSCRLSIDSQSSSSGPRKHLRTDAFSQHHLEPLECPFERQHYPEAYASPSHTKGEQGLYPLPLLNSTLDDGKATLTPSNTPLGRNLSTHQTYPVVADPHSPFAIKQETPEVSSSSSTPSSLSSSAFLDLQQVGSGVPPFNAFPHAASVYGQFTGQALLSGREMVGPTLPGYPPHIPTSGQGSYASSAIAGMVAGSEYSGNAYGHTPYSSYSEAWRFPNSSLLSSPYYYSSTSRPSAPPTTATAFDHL
Beta Lactamase, sequence (Q932Y6 whole entry): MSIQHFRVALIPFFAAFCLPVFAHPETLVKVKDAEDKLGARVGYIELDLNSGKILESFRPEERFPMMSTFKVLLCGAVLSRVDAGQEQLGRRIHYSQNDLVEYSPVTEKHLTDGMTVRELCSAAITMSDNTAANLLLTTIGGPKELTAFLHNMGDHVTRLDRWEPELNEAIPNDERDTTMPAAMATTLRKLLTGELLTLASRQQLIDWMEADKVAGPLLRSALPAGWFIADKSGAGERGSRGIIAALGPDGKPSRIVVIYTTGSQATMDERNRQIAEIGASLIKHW
Luciferin 4-monooxygenase, sequence (P08659 whole entry): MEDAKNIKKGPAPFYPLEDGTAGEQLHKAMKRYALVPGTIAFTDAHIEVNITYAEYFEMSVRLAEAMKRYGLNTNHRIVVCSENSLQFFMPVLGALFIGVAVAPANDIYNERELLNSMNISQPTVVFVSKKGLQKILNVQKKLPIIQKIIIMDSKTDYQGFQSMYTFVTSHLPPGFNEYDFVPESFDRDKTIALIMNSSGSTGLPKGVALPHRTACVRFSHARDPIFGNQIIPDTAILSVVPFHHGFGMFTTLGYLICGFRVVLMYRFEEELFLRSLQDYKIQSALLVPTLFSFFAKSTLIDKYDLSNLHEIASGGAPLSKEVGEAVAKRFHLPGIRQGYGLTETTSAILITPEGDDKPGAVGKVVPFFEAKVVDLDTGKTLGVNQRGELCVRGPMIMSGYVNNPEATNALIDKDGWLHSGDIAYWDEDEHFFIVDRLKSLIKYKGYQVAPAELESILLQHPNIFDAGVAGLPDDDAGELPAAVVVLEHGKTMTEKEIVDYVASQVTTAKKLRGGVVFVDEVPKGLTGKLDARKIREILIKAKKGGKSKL
Sphingosine 1-phosphate receptor 1, sequence (P21453 whole entry): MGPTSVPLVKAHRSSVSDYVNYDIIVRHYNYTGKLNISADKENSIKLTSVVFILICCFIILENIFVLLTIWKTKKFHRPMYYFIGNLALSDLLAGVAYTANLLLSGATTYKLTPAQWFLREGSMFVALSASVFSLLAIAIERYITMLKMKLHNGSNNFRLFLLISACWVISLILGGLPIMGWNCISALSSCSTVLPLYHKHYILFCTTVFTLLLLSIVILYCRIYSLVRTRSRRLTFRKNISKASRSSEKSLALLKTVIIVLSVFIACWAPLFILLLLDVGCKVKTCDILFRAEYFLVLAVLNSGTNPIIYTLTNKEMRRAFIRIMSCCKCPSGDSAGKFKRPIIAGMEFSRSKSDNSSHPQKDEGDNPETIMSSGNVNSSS
Transitional endoplasmic reticulum ATPase (Homo sapiens, UniProt P55072), sequence (P55072 whole entry): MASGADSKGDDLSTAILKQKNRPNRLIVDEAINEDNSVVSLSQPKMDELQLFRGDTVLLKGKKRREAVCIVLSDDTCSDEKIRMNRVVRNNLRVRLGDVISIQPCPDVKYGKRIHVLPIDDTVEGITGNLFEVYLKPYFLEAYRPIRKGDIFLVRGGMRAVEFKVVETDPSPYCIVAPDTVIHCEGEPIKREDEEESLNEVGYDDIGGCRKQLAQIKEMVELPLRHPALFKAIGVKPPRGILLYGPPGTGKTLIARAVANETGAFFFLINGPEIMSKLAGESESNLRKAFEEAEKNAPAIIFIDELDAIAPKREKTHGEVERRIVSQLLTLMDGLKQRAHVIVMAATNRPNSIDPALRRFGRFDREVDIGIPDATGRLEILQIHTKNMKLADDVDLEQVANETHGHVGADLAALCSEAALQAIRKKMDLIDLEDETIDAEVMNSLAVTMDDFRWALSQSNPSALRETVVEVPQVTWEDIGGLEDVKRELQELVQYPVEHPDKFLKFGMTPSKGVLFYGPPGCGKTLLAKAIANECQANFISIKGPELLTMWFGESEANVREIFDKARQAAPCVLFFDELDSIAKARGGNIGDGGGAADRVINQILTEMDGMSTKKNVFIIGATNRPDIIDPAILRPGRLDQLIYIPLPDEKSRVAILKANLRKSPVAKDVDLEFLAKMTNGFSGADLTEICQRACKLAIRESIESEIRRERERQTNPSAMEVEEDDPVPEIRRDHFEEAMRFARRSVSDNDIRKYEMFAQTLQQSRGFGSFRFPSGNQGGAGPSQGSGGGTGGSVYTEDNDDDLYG
Transitional endoplasmic reticulum ATPase (Homo sapiens, UniProt P55072, C522A), sequence (P55072 2-806 C522A limits assumed): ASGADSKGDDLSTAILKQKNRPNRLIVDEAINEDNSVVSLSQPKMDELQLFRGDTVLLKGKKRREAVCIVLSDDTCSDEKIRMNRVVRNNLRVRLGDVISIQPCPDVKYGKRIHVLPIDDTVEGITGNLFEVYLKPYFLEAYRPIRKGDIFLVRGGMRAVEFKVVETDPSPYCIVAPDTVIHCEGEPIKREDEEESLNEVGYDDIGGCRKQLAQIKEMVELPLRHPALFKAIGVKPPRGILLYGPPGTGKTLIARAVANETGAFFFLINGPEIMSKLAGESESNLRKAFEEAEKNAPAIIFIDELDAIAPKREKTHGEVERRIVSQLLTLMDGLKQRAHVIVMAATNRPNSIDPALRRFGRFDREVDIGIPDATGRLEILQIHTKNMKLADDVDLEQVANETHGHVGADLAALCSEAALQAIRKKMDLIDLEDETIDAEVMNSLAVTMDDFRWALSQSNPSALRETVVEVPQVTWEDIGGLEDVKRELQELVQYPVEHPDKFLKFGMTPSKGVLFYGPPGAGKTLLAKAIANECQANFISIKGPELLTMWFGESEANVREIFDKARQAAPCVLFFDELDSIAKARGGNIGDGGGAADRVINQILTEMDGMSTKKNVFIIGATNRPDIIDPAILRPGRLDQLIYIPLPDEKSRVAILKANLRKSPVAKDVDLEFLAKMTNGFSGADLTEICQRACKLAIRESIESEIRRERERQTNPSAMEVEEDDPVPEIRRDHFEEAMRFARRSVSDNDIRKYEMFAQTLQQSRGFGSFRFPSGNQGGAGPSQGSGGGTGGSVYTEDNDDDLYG

## CCOC(=O)/C(C#N)=C/c1ccc(C#N)cc1
[1]
  IC50: > 50 µM (not active)
[2]
  IC50: > 50 µM (not active)

## CS(=O)(=O)c1ncc(Cl)c(C(=O)Nc2ccc3ccccc3c2)n1
[3]
  EC50: < 30 µM (active)
Paired box protein Pax-8
  AC50: 7.81 µM (active)
[4]
  AC50: 2.49 µM (active)
A-375 [5]
  AC50: > 35 µM (active)
A-375 [6]
  AC50: > 35 µM (active)
[7]
  EC50: 3.6 µM (active)
Protein RecA
  EC50: 4.84 µM (active)
[8]
  IC50: > 5.53 µM (not active)
Beta Lactamase
  IC50: 7.13 µM (active)
[9]
  EC50: > 112 µM (not active)
[10]
  IC50: 2.07 µM (active)
CHO
  IC50: 1.95 µM (active)

## Cc1nc2sccn2c(=O)c1CCN1CCC(=C(c2ccccc2)c2ccc(F)cc2)CC1
[11]
  EC50: 17.4 µM (active)
[12]
  EC50: 18.3 µM (active)
Cytochrome P450 2C19
  AC50: 15.8 µM (inconclusive)

Reference: ChEMBL document CHEMBL1201862, “PubChem BioAssay data set” (2004)
